Read-outs that look alike come from different tables or passages of the source.
Assays:
[1] = biological target: T1, MK2 (Homo sapiens (Human), UniProt P49137)
Description: Aliquots of the resulting mixture (6 μL each) were diluted with 0.2% trifluoroacetic acid (TFA, 10 μL) prior to micro C4 ZipTipping directly onto the MALDI target using sinapinic acid as the desorption matrix (10 mg/ml in 0.1% TFA:acetonitrile 50:50, v/v). The centroid mass of the target protein in the control sample was compared with the centroid mass of the target protein incubated with compound. A shift in the centroid mass of the treated protein compared to the untreated protein was divided by the molecular weight of the compound. This number corresponds to the percentage of modified protein (a measure of the proportion of total target protein covalently bound to the test compound) after one hour incubation.
3 μL of magnetic Ni-NTA beads were added to the 6 μL aliquots of sample, washed, eluted with 0.2% trifluoroacetic acid (TFA, 2 μL), and spotted directly onto the MALDI target using sinapinic acid as the desorption matrix (10 mg/ml in 0.1% TFA:acetonitrile 50:50, v/v). The centroid mass of the target protein in the control sample was compared with the centroid mass of the target protein incubated with compound. A shift in the centroid mass of the treated protein compared to the untreated protein was divided by the molecular weight of the compound. This number corresponds to the percentage of modified protein (a measure of the proportion of total target protein covalently bound to the test compound) after one hour incubation.

[2] = biological target: p38α activated, mitogen-activated protein kinase-activated protein kinase 2 (MAPKAP-K2 or MK2) enzyme (Homo sapiens (Human), UniProt P49137); assay: MK2 Omnia continuous-read kinase assay for compound potency; type: biochemical; details: read-out: MK2 IC50
From the text: Mitogen-Activated Protein Kinase-Activated Protein Kinase 2 Omnia® Assay for Compound Potency Assessment:
The protocol below describes a continuous-read kinase assay optimized to measure potency of compounds against p38α activated, mitogen-activated protein kinase-activated protein kinase 2 (MAPKAP-K2 or MK2) enzyme. Further details of this assay are described by Life Technologies, Carlsbad, Calif. on their website at the following URL: http://tools.lifetechnologies.com/content/sfs/manuals/omnia_kinase_assay_man.pdf.
[Reagent] used: • [MK-2]=0.4 nM, • [ATP]=10 μM and • [ST3-Sox]=10 μM (ATP^appKM=10 μM)
Kinase reactions were started with the addition of 45 μL of the ATP-peptide substrate S/T3-Sox mix and monitored every 71 seconds for 120 minutes at λex360/λem485 in a Synergy H4 plate reader from BioTek (Winooski, Vt.) at room temperature.
Background signals from the no enzyme control wells were subtracted from all progress curves. The initial linear portions of the net progress curves were fit according to a linear equation to yield the slope and percentage of inhibition (% inhibition) at each compound concentration. The net progress curves obtained during the first two hours of reactions were also fit according to an ascending single-exponential equation (Eq. 1) to yield kobs values at each compound concentration. Plots of % Inhibition versus inhibitor concentrations were fit according to a dose-response equation (Eq. 2) to generate IC50 and Hill slope values while plots of kobs versus inhibitor concentration were fit according to Equation 3 (Eq. 3) to generate apparent kinact/KI values using the GraphPad PRISM software (Version 6.00; GraphPad San Diego, Calif.).
[formula] where F is the fluorescence intensity from the plate reader, V0 is a constant reflecting the relationship between the instrument readout and product concentration, t is time, e is Euler's number, and kobs is the observed inactivation rate constant.
[formula] where % Inhibition is percentage of inhibition, IC50 is half maximal inhibitory concentration, [I] is the inhibitor concentration, and n is the Hill slope.

[3] = biological target: T1, MK2; assay: MK2 cellular assay, total and phospho-Hsp27 (Serine 78) by MSD ELISA (Thp1); type: cell-based
Description: MK2 Cellular Assay—Detection of Total and Phospho-Hsp27 (Serine 78) by MSD ELISA (Thp1)
Compounds of the invention were assayed in Thp-1 human acute monocytic leukemia cells to measure inhibition of MK2 activity. Thp-1 cells were grown in culture medium containing RPMI/10% FBS (fetal bovine serum)/0.05 mM 2-mercaptoethanol. 72 hours prior to the assay, 8×10^4 cells per well were plated in a 96 well flat bottom plate along with 10 ng/mL phorbol 12-myristate 13-acetate (PMA). Cells were cultured in an incubator at 37° C. until needed for the assay. Cell plate media was replaced with culture media just prior to assay while compound dilutions were being made.
Stock solutions of test compound, 1 mM in DMSO, were prepared. 0.9 μl of test compound was added to 300 μl cell media for a starting concentration of 3000 nM. […] Cell plate media was discarded, followed by addition of 100 μl of the compound containing media. The resulting preparation was incubated at 37° C. for 1 hour.
Test compound-containing cell assay media was removed and the cells were washed once with cell assay media. Cell assay media containing 50 ng/mL LPS (lipopolysaccharide) was added to the each well and incubated for 45 minutes. Following LPS incubation, the cells were washed once with PBS (phosphate-buffered saline) and lysed with 60 μl Cell Extraction Buffer (Invitrogen #FNN0011) plus protease and phosphatase inhibitors. The plate was then stored at −80° C. until further analysis.
The MULTI-SPOT Phospho(Ser78)/Total HSP27 ELISA Assay kit was purchased from Meso Scale […] (MSD; catalog #K15128D). […] The pre-coated MSD plate was blocked with 150 μL/well of 3% BSA in MSD wash buffer. The preparation was placed on a shaker at room temperature for an hour. While the ELISA plate was blocked, the cell assay plate stored at −80° C. was placed on a shaker at 4° C. for 1 hour to thaw.
The blocked MSD plate was washed on a plate washer, tapping out the last bit of wash solution, followed by addition of 30 μl of the lysate from the cell assay plate. The preparation was covered and incubated for 1 hour at room temperature. The lysate was removed, the plate was washed 3 times on a plate washer and the last bit of wash buffer was tapped out and replaced with 25 μl/well detection antibody (anti-total HSP27 conjugated with an electrochemiluminescent compound, MSD SULFO-TAG label, supplied in kit) made in 1% BSA/MSD wash buffer. The plate was incubated for 1 hour at room temperature on a shaker, followed by 3 washes. The last bit of wash buffer was tapped out. 150 μl/well 1×MSD read buffer was added (4× read buffer supplied with kit) and the plate was analyzed on the MSD SECTOR® Imager for analysis. The SECTOR® Imager measures intensity of emitted light to provide a quantitative measure of phosphorylated HSP27 (Ser78) and total HSP27 present in the sample. The relative percent phosphoprotein in a sample is calculated by dividing the Phospho-HSP27 signal intensity over the total HSP27 signal intensity measured in each well.

[4] = percentage of modified protein after 60 minutes at room temperature, 10-fold excess of compound, MALDI (I-1 to I-50), magnetic bead MALDI (I-51 to I-129)
[5] = [MK-2]=0.4 nM, [ATP]=10 μM, [ST3-Sox]=10 μM
[6] = Thp-1 cells, 1 hour compound, 50 ng/mL LPS 45 minutes, p-HSP27 (Ser78)/total HSP27, read-out: pHSP27 signaling EC50
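Throughout, for Mass Modification: covalent binding read from centroid mass shift of compound-treated versus untreated intact MK2, shift divided by compound molecular weight, giving fraction of total protein bound.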

T1 sequence (P49137 whole entry): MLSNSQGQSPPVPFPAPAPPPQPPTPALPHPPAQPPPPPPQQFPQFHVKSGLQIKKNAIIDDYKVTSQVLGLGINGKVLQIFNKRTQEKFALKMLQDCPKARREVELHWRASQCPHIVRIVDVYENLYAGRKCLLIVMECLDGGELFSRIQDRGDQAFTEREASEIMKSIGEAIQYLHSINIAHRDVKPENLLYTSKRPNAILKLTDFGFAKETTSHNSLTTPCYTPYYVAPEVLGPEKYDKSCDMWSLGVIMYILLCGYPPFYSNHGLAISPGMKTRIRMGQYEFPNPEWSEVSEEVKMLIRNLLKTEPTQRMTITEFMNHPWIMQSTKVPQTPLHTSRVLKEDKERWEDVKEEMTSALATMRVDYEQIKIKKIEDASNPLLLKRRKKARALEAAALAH
Chain of p38α activated, mitogen-activated protein kinase-activated protein kinase 2 (MAPKAP-K2 or MK2) enzyme (P49137 whole entry): as above

| EC50 [3] | SMILES | Mass Modification [1, 4] | IC50 [2, 5] | EC50 [3, 6] | Mass Modification [1] | IC50 [2] |
| --- | --- | --- | --- | --- | --- | --- |
|  | C[C@@H]1CNc2c(sc3ccc4nc(Oc5nc(F)nc6c5COC6)ccc4c23)C(=O)N1 [I-119, (R)-3-((2-fluoro-5,7-dihydrofuro[3,4-d]pyrimidin-4-yl)oxy)-10-methyl-9,10,11,12-tetrahydro-8H-[1,4]diazepino[5′,6′:4,5]thieno[3,2-f]quinolin-8-one] | F (mass modification of 31-69%) | < 100 nM | < 100 nM |  |  |
|  | C[C@@H]1CNc2c(sc3ccc4nc(Nc5cc(Cl)nc(OC6CCCN(C)C6)n5)ccc4c23)C(=O)N1 (stereo partly drawn) [I-59, (10R)-3-((6-chloro-2-((1-methylpiperidin-3-yl)oxy)pyrimidin-4-yl)amino)-10-methyl-9,10,11,12-tetrahydro-8H-[1,4]diazepino[5′,6′:4,5]thieno[3,2-f]quinolin-8-one] | E (mass modification of ≧70%) | < 100 nM | 501 to 999 nM |  |  |
|  | C[C@@H]1CNc2c(sc3ccc4nc(Nc5cc(Cl)nc(O[C@@H]6CCN(C)C6)n5)ccc4c23)C(=O)N1 [I-60, (R)-3-((6-chloro-2-(((R)-1-methylpyrrolidin-3-yl)oxy)pyrimidin-4-yl)amino)-10-methyl-9,10,11,12-tetrahydro-H-[1,4]diazepino[5′,6′:4,5]thieno[3,2-f]quinolin-8-one] | F (mass modification of 31-69%) | < 100 nM | 101 to 500 nM |  |  |
|  | C[C@@H]1CNc2c(sc3ccc4nc(Oc5nc(Cl)ncc5CN5CCCC(C)(C)C5)ccc4c23)C(=O)N1 [I-95, (R)-3-((2-chloro-5-((3,3-dimethylpiperidin-1-yl)methyl)pyrimidin-4-yl)oxy)-10-methyl-9,10,11,12-tetrahydro-8H-[1,4]diazepino[5′,6′:4,5]thieno[3,2-f]quinolin-8-one] | E (mass modification of ≧70%) | 101 to 500 nM | < 100 nM |  |  |
|  | C[C@@H]1CNc2c(sc3ccc4nc(Nc5cc(Cl)ncc5C#N)ccc4c23)C(=O)N1 [I-25, (R)-6-chloro-4-((10-methyl-8-oxo-9,10,11,12-tetrahydro-8H-[1,4]diazepino[5′,6′:4,5]thieno[3,2-f]quinolin-3-yl)amino)nicotinonitrile] |  |  | < 100 nM | F (key: E: mass modification of ≧70%; F: mass modification of 31-69%; G: mass modification ≦30%) | < 100 nM |
|  | NC(=O)c1cnc(Cl)nc1Nc1ccc2c(ccc3sc4c(c32)NC[C@@H](CO)NC4=O)n1 [I-30, (S)0-2-chloro-4-((10-(hydroxymethyl)-8-oxo-9,10,11,12-tetrahydro-8H-[1,4]diazepino[5′,6′:4,5]thieno[3,2-f]quinolin-3-yl)amino)pyrimidine-5-carboxamide] | E (mass modification of ≧70%) | < 100 nM | 101 to 500 nM |  |  |
|  | C[C@@H]1CNc2c(sc3ccc4nc(Oc5nc(Cl)nc(N6CCOCC6)n5)ccc4c23)C(=O)N1 [I-63, (R)-3-((4-chloro-6-morpholino-1,3,5-triazin-2-yl)oxy)-10-methyl-9,10,11,12-tetrahydro-8H-[1,4]diazepino[5′,6′:4,5]thieno[3,2-f]quinolin-8-one] | E (mass modification of ≧70%) | < 100 nM | < 100 nM |  |  |
|  | C[C@@H]1CNc2c(sc3ccc4nc(Nc5nc(Cl)ncc5C(N)=O)ccc4c23)C(=O)N1 [I-9, (R)-2-chloro-4-((10-methyl-8-oxo-9,10,11,12-tetrahydro-8H-[1,4]diazepino[5′,6′:4,5]thieno[3,2-f]quinolin-3-yl)amino)pyrimidine-5-carboxamide] | E (mass modification of ≧70%) | < 100 nM | < 100 nM |  |  |
|  | C[C@@H]1CNc2c(sc3ccc4nc(Oc5cnnc(Cl)c5)ccc4c23)C(=O)N1 [I-79, (R)-3-((6-chloropyridazin-4-yl)oxy)-10-methyl-9,10,11,12-tetrahydro-8H-[1,4]diazepino[5′,6′:4,5]thieno[3,2-f]quinolin-8-one] | E (mass modification of ≧70%) | < 100 nM | 101 to 500 nM |  |  |
|  | C[C@@H]1CNc2c(sc3ccc4nc(Nc5cc(F)nc(CN6CCCCC6)n5)ccc4c23)C(=O)N1 [I-74, (R)-3-((6-fluoro-2-(piperidin-1-ylmethyl)pyrimidin-4-yl)amino)-10-methyl-9,10,11,12-tetrahydro-8H-[1,4]diazepino[5′,6′:4,5]thieno[3,2-f]quinolin-8-one] | E (mass modification of ≧70%) | < 100 nM | < 100 nM |  |  |
|  | C[C@@H]1CNc2c(sc3ccc4nc(Nc5cc(F)nc(CN6CCN(C)CC6)n5)ccc4c23)C(=O)N1 [I-73, (R)-3-((6-fluoro-2-((4-methylpiperazin-1-yl)methyl)pyrimidin-4-yl)amino)-10-methyl-9,10,11,12-tetrahydro-8H-[1,4]diazepino[5′,6′:4,5]thieno[3,2-f]quinolin-8-one] | G (mass modification ≦30%) | < 100 nM | > 1000 nM |  |  |
|  | C[C@@H]1CNc2c(sc3ccc4nc(Oc5nc(Cl)nc(N6CCCCC6)n5)ccc4c23)C(=O)N1 [I-64, (R)-3-((4-chloro-6-(piperidin-1-yl)-1,3,5-triazin-2-yl)oxy)-10-methyl-9,10,11,12-tetrahydro-8H-[1,4]diazepino[5′,6′:4,5]thieno[3,2-f]quinolin-8-one] | E (mass modification of ≧70%) | < 100 nM | > 1000 nM |  |  |
| 101 to 500 nM | COCCOc1nc(F)cc(Nc2ccc3c(ccc4sc5c(c43)NC[C@@H](C)NC5=O)n2)n1 [I-44, (R)-3-((6-fluoro-2-(2-methoxyethoxy)pyrimidin-4-yl)amino)-10-methyl-9,10,11,12-tetrahydro-8H-[1,4]diazepino[5′,6′:4,5]thieno[3,2-f]quinolin-8-one] | G (mass modification ≦30%) | < 100 nM |  |  |  |
|  | COCCOc1nc(Cl)cc(Nc2ccc3c(ccc4sc5c(c43)NC[C@@H](C)NC5=O)n2)n1 [I-67, (R)-3-((6-chloro-2-(2-methoxyethoxy)pyrimidin-4-yl)amino)-10-methyl-9,10,11,12-tetrahydro-8H-[1,4]diazepino[5′,6′:4,5]thieno[3,2-f]quinolin-8-one] | F (mass modification of 31-69%) | < 100 nM | 101 to 500 nM |  |  |
